From patent US8882853B2, “Environmentally-friendly solvent for washing and dry-cleaning, and laundry composition including the same” (LG Household & Health Care Ltd., priority 2011, dated 2014)
Read-outs that look alike come from different tables or passages of the source.

Key:
[1] = Drying rate of solvent impregnated in standard cotton samples at room temperature; format: physicochemical; conditions: dried for 8 hours, room temperature (25° C.), relative humidity of 30%
Procedure: Each solvent used in Comparative Examples 1 to 7 and Examples 1 to 4 was evaluated for its drying rate at room temperature which is considered an important factor in dry-cleaning. The initial weight (A) of standard cotton samples was each measured. After impregnating each solvent or composition in a certain amount into the cotton samples, the weight (B) of the cotton samples was measured. A difference between weight (B) and weight (A) was calculated to determine the weight of each of the impregnated solvents. Then, the cotton samples in which each solvent was impregnated were dried for 8 hours under conditions of room temperature (25° C.) and a relative humidity of 30%. After drying, the weight of each cotton sample was measured and converted into a percentage relative to the initial impregnation weight to obtain a drying rate for each solvent.

Solubility in water = format: physicochemical
Excerpt: There has been a limitation in the effectiveness of conventional solvents for dry-cleaning in removing water-based contaminants due to the hydrophobic property thereof. Accordingly, in order to relatively evaluate a cleaning effect on the removal of water-based contaminants, the water-containing capacity of solvents according to the present invention was compared with that of the conventional dry-cleaning solvents.

Structure (SMILES): CC(C)CC1(C)OCC(CO)O1 (centres unmarked) [Example 3, Glycerol-Methyl Isobuthyl Ketone Ketal]
- Drying rate (%) [1]: 85.25%

Structure (SMILES): CCCC1OCC(CO)O1 (centres unmarked) [Example 4, Glycerol-Butylaldehyde Acetal]
- Drying rate (%) [1]: 90.3%
- Solubility (20° C.) (Solubility in water; result in words): soluble

Structure (SMILES): COCC(O)CO (centres unmarked) [Com. Ex. 5, 3-Methoxy 1,2-propanol]
- Drying rate (%) [1]: 10.53%

Structure (SMILES): C[Si]1(C)O[Si](C)(C)O[Si](C)(C)O[Si](C)(C)O[Si](C)(C)O1 [Com. Ex. 4, Decamethyl-cyclopentasiloxane]
- Drying rate (%) [1]: 100%
- Solubility (20° C.) (Solubility in water; result in words): Insol-

Structure (SMILES): CC1(C)OCC(CO)O1 (centres unmarked) [Example 1, Acetone Glycerol]
- Drying rate (%) [1]: 100%
- Solubility (20° C.) (Solubility in water; result in words): soluble

Structure (SMILES): ClC(Cl)=C(Cl)Cl [Com. Ex. 2, Perchloroethylene]
- Drying rate (%) [1]: 100%
- Solubility (20° C.) (Solubility in water): 0.015 g/ g/100 mL

Structure (SMILES): O [Com. Ex. 1, Water]
- Drying rate (%) [1]: 100%

Structure (SMILES): COCC(CO)OC (centres unmarked) [Com. Ex. 6, 2,3-Dimethoxy-1-propanol]
- Drying rate (%) [1]: 95.29%

Structure (SMILES): CCC1(C)OCC(CO)O1 (centres unmarked) [Example 2, Glycerol-Methyl Ethyl Ketone Ketal]
- Drying rate (%) [1]: 100%
- Solubility (20° C.) (Solubility in water; result in words): soluble
